Measured values from patent US7897620B2, “Methods of using anti-inflammatory compounds” (Cambridge Enterprise Limited, priority 2007, dated 2011).

Test system: lung leukocyte recruitment and T-helper cell polarisation
Assay: Ovalbumin-induced lung inflammation model of asthma (BAL leukocyte count, splenocyte Th1/Th2 ratio)
Type: in vivo, Brown Norway rat
Conditions: rat, 0.3 mg/kg daily oral
Description: Adult Brown Norway rats (200-300 g body weight; n=10 per group) were sensitised by a single intraperitoneal injection of 0.1 mg Ovalbumin on day 0. Each rat then received an intratracheal challenge with a solution of 1% ovalbumin (w/v) on day 8, and with 2% ovalbumin (w/v) on days 15, 18 and 21. The animals were then sacrificed 3 hours after the final challenge on day 21. Note that ovalbumin (Sigma; purest available grade) was made endotoxin-free by passage over EndoTrap™ Red columns (purchased from Cambrex; used in accordance with the manufacturer's instructions), and the endotoxin level was confirmed as <5 EU/mg protein using the LAL assay (QCL-1000™; Cambrex; performed in accordance with the manufacturer's instructions; 1 mg of standard endotoxin contains ˜900,000 EU/mg). […]
On sacrifice, total lung leukocyate recruitment was assessed by performing a broncheoalveolar lavage (BAL) using 4 lots of 3 ml sterile phosphate-buffered saline introduced through a tracheal cannula. For each animal, the BAL washes were combined, and the total cell population counted (using a haemocytometer). […]
The spleen was also removed from each […] and placed in RPMI+10% FCS+antibiotics. […] The resulting cell suspension was then centrifuged (328 g; 5 mins) and washed in RPMI+10% FCS+antibiotics, before being resuspended in fresh media and counted using a haemocytometer. […]

SMILES: CC(C)(C)C(=O)N[C@H]1CCCNC1=O [Compound (I′), 3-(2′,2′-dimethylpropanoylamino)-tetrahydropyridin-2-one]
- Th2 polarisation (Th1/Th2 ratio of CD4+ splenocytes): completely abolishes the Th2 polarisation
